Reference: article PMC10544575, “Inhibitory mechanism of vortioxetine on CYP450 enzymes in human and rat liver microsomes” (Frontiers in Pharmacology, 2023)
“Also recorded” adds a separate entry of the source. Like-named read-outs stand apart in the source and are kept apart here.

Tests used:
[1] = test system: CYP2C-3; assay: Reversible inhibition kinetics (Lineweaver-Burk), CYP2C-3 in RLMs; format: in vitro ADME, rat
Experimental: (§1) The components of the incubation system were as follows: 0.20 mg/mL HLMs or 0.20 mg/mL RLMs, 0.1 M Tris-HCl, vortioxetine, and the probe substrates of each enzyme. In the study of Km’s (Michaelis–Menten constant) experiment, midazolam (1, 2, 5, 10, 20, 50 and 100 μM in HLMs and RLMs) corresponded to CYP3A4/3A; bupropion (10, 20, 50, 100, 200, 500, 1,000 and 2000 μM in HLMs; 1, 2, 5, 10, 20, 50, 100 and 200 μM in RLMs) corresponded to CYP2B6/2B; amodiaquine (5, 10, 20, 50, 100 and 200 μM in HLMs; 10, 20, 50, 100, 200, 500 μM in RLMs) corresponded to CYP2C8/CYP2C-1; losartan (1, 2, 5, 10, 20, 50, 100, 200 μM in HLMs; 10, 20, 50, 100, 200, 500 and 1,000 μM in RLMs) corresponded to CYP2C9/CYP2C-2; mephenytoin (20, 50, 100, 200, 500 and 1,000 μM in HLMs; 5, 10, 20, 50, 100, 200, 500 and 1,000 μM in RLMs) corresponded to CYP2C19/CYP2C-3; and dextromethorphan (1, 2, 5, 10, 20, 50 and 100 μM in HLMs and RLMs) corresponded to CYP2D6/CYP2D. After 5.0 min of preincubation in the shaking water bath, the reaction was started with the addition of 1.0 mM NADPH. The incubated temperature at 37°C for 30 min. After the incubation, the enzyme reaction was stopped by cooling at −80°C, and 200 μL of acetonitrile and 20 μL of internal standard diazepam (200 ng/mL) were added for protein precipitation. The solution was fully vortexed and centrifuged at 13,000 × rpm for 10 min, and the supernatant was collected for data analysis by UPLC-MS/MS.
(§2) The inhibitory mechanism of the inhibitor on the enzyme was generally used by different concentrations of the inhibitor against different concentrations of the probe substrate. The concentrations of the inhibitor and the concentrations of probe substrates in the experiment were estimated based on IC50 and Km values, respectively.
(§3) In RLMs, the concentrations of the substrates midazolam and dextromethorphan were 0.8, 1.6, 3.5, 7 μM and 5, 10, 20, 40 μM, respectively, vortioxetine concentrations were 4, 8, 16, 32 μM. The concentrations of mephenytoin and amodiaquine were 100, 200, 400, 800 μM and 5, 10, 20, 40 μM, respectively, vortioxetine concentrations were 5, 10, 20, 40 μM. The losartan concentrations were 4, 8, 15, 30 μM, corresponding to vortioxetine concentrations of 0.08, 0.15, 0.3, 0.6 μM. […]
(§4) All experiments results were detected by UPLC-MS/MS, which equipped with a Waters Acquity UPLC system (Milford, MA, United States) and a Waters Xevo TQ-S triple quadrupole tandem mass spectrometer with an electrospray ionization source (Milford, MA, United States). […]
(§5) IC50 values and enzyme kinetic parameters were calculated by Graphpad Prism 6.0 (GraphPad software Inc., CA, United States). […] Data for each experiment were expressed as mean ± SD (n = 3).

[2] = test system: CYP2C-1; assay: Reversible inhibition kinetics (Lineweaver-Burk), CYP2C-1 in RLMs; format: in vitro ADME, rat
Experimental: as §1, §2, §3, §4, §5

[3] = design: method as in earlier work; details: patients with severe liver impairment; single oral dose of 10 mg; ref (2022); cited from earlier work
[4] = target: CYP2C19 (Homo sapiens, UniProt P33261); assay: IC50 of vortioxetine on CYP2C19 (mephenytoin) in HLMs; format: in vitro ADME; design: 0.20 mg/mL HLMs; from tissue; host or cells: human liver microsomes
Experimental: as §1, with “After 5.0 min of preincubation in the shaking water bath, the reaction was started with the addition of 1.0 mM NADPH. The incubated temperature at 37°C for 30 min. After the incubation, the enzyme reaction was stopped by cooling at −80°C, and 200 μL of acetonitrile and 20 μL of internal standard diazepam (200 ng/mL) were added for protein precipitation. The solution was fully vortexed and centrifuged at 13,000 × rpm for 10 min, and the supernatant was collected for data analysis by UPLC-MS/MS.” left out
as §4, §5

[5] = target: CYP2D6 (Homo sapiens, UniProt P10635); assay: Reversible inhibition kinetics (Lineweaver-Burk), CYP2D6 in HLMs; format: in vitro ADME; design: 0.20 mg/mL HLMs; from tissue; host or cells: human liver microsomes; details: dextromethorphan
Experimental: as §1, with “After 5.0 min of preincubation in the shaking water bath, the reaction was started with the addition of 1.0 mM NADPH. The incubated temperature at 37°C for 30 min. After the incubation, the enzyme reaction was stopped by cooling at −80°C, and 200 μL of acetonitrile and 20 μL of internal standard diazepam (200 ng/mL) were added for protein precipitation. The solution was fully vortexed and centrifuged at 13,000 × rpm for 10 min, and the supernatant was collected for data analysis by UPLC-MS/MS.” left out
as §4, §5

CYP2D6, sequence (P10635 whole entry): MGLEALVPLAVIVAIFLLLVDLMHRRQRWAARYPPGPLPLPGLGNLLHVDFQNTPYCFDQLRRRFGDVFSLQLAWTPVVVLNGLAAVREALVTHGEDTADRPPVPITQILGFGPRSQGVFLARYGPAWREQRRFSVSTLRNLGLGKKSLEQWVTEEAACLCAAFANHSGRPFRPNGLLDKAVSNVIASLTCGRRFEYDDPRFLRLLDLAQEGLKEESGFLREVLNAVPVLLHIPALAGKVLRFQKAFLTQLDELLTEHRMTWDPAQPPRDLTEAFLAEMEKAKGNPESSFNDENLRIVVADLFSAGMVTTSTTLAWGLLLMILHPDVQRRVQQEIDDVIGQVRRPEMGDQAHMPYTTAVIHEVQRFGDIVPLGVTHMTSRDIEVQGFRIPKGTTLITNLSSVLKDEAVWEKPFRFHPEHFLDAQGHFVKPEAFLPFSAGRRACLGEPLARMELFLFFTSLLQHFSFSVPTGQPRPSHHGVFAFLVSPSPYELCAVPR
CYP2C19, sequence (P33261 whole entry): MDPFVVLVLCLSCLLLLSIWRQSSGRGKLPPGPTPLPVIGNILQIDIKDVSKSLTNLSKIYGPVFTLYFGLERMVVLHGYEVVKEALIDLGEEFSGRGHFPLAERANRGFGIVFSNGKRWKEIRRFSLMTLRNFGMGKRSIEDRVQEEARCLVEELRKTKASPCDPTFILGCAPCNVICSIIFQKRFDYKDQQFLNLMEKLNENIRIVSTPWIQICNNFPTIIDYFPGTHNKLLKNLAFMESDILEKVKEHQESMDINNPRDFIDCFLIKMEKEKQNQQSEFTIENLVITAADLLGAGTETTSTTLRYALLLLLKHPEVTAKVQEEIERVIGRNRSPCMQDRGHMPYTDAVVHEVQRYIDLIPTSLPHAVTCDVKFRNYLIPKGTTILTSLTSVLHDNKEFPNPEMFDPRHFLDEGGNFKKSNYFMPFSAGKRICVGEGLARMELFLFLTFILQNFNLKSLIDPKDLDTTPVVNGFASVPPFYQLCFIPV

- α ([1]; mephenytoin): 2.97
- Inhibition type ([1]; mephenytoin, Lineweaver-Burk plot): noncompetitive inhibition
- αKi ([1]; mephenytoin, secondary plot of y-intercepts): 12.54 µM
- Ki at 30 min ([1]; rat, rat liver microsomes, probe mephenytoin): 4.23 µM
- α ([2]; amodiaquine): 1.42
- Inhibition type ([2]; amodiaquine, Lineweaver-Burk plot): mixed inhibition
- αKi ([2]; amodiaquine, secondary plot of y-intercepts): 56.73 µM
- Ki at 30 min ([2]; rat, rat liver microsomes, probe amodiaquine): 39.9 µM
- IC50 ([4]; HLMs 0.20 mg/mL, mephenytoin at Km, 37°C, 30 min, read-out: IC50): 2.4 µM
- IC50 ([4]; inhibitory effect (strength judged by IC50), HLMs): 1 to 10 µM
- Ki [5]: 9.37 µM
Structure (SMILES): Cc1ccc(Sc2ccccc2N2CCNCC2)c(C)c1 [vortioxetine]
- AUC(0-t) higher than healthy subjects [3]: 10%
- Cmax lower than healthy subjects [3]: 24%
- Inhibition type ([5]; Lineweaver-Burk plot): competitively inhibited; also recorded: competitive inhibition
